In article PMC6199279, “Design of Peptoid-peptide Macrocycles to Inhibit the β-catenin TCF Interaction in Prostate Cancer” (Nature Communications, 2018):
Numbered stars: 1 amine (or outer) side, 2 acyl side, 3 side chain; on linkers, the order of the positions; unused ones are H or OH. Square brackets hold non-standard residues; d marks the D form. Peptide text beside a SMILES is read from it. N(2-(2-PhOPh)Et)Gly = O=C(O)CNCCc1ccccc1Oc1ccccc1; Gly(N-3,5-(OMe)2-Ph) = COc1cc(NCC(=O)O)cc(OC)c1; X1 = COc1ccc([C@H](C)N(CC(=O)[*:2])[*:1])cc1; N((CH2)3OiPr)Gly = CC(C)OCCCNCC(=O)O

Legend:
Format in all cases: cell-based
[1] = tested on: TOP-Flash Wnt luciferase reporter; assay: TOP-Flash Wnt luciferase reporter assay in LNCaP-abl cells
Excerpt: (§1) Using a TOP-Flash Wnt luciferase reporter, we tested the 12 oligomers identified from in silico modeling for inhibitory activity (Fig. 2b). […] We also employed a 3 × -Androgen Response Element (ARE) luciferase reporter to measure the effect on AR activity. […] As additional controls, we obtained previously developed, commercially available Wnt inhibitors and tested them in the Wnt luciferase assay (Supplementary Fig. 5).
(§2) We next characterized the dose response curves for compound 13 in the Wnt and AR luciferase reporters. The linear version of 13 (linear 13: NH2-|N-mpp, N-dmp, N-ipp, N-Smpe, N-Smpe, D-Ala|-OH) was used as a control compound. […] To test direct binding, we pre-formed dynamic light scattering (DLS) with β-catenin in the presence of vehicle, compound 13, and α-cyclodextrin. […] HEK293 cells were transiently transfected with a plasmid expressing full length, myc-tagged TCF4. After 48 h treatment with either vehicle (DMSO) or 10 µM 13, cells were lysed and myc-TCF4 protein was immunoprecipitated.
LNCaP-abl and LNCaP-95 cells were cultured in indicator free RPMI 1640 media (Life) supplemented with 10% charcoal stripped FBS, 1% pennicillin/streptomycin, and 1% L-Glutamine. HEK-293 Cells were cultured in DMEM media (Life) supplemented with 10%FBS and 1% pennicillin/streptomycin. A549 and U2OS cells were cultured in RPMI 1640 media (Life) and McCoy’s 5 A modified media (Life), respectively, both supplemented with 10%FBS and 1% pennicillin/streptomycin. LNCaP-abl, and LNCaP-95 cell lines were generous gifts from Z. Culig (Innsbruck Medical University, Austria) and J. Isaacs (Johns Hopkins University, Baltimore, MD), respectively. Cell lines were authenticated by STR profiling (Genetica Cell Line Testing; Burlington, NC). A549 and U2OS were purchased from ATCC (product numbers CCL-185 and HTB-96). Cell lines were routinely screened for mycoplasma. Luciferase assays were conducted using stably transfected TOP-flash and 3xARE LNCaP-abl cell lines. For the Wnt pathway, TOP-Flash LNCaP-abl cells were treated with 1 nM siAPC (a 1:1:1 mix of Ambion Silencer Silect siAPC RNA, ID#s s1433, s1434, s1435) for 24 h and seeded into 384-well plates at 5000 cells/well, followed by 24 h of treatment with compound. For the AR-pathway, 3xARE LNCaP-abl cells were seeded into 384-well plates at 5000 cells per well, treated for 48 h with compound, with the addition of R1881 for the final 8 h. Both were measured using the ONE-Glo detection kit (Promega) and data is standardized to CellTiter-Fluor (Promega) viability readings to account for potential variations in well to well cell number. Control Wnt inhibitors were purchased from Sigma with the exception of PRI-724 which was purchased from Selleckchem. Co-immunoprecipitation was carried out using HEK293 cells transfected with either myc-TCF (addgene #32738) or myc-TCF dominant negative (addgene #32739) followed by 48 h of treatment with compound. Cells were lysed using Triton lysis buffer and 1 mg total protein was incubated overnight at 4 C with 40 µl anti-cMyc magnetic beads (Thermo). Total protein concentration in cell lysates were determined using Pierce Rapid Gold BCA Protein Assay Kit (Thermo). The beads were washed 3× with lysis buffer then boiled in 2X sample loading dye. SDS-PAGE and western blotting were performed using anti-Myc (CST 2276) and anti-β-catenin (CST 8480). Both antibodies were diluted in blocking buffer 1:1000 and incubated overnight at 4 C with the membrane. […]

[2] = tested on: AR luciferase reporter (3xARE); assay: 3x-Androgen Response Element (ARE) luciferase reporter assay in LNCaP-abl cells
Excerpt: as §1, §2
LNCaP-abl and LNCaP-95 cells were cultured in indicator free RPMI 1640 media (Life) supplemented with 10% charcoal stripped FBS, 1% pennicillin/streptomycin, and 1% L-Glutamine. HEK-293 Cells were cultured in DMEM media (Life) supplemented with 10%FBS and 1% pennicillin/streptomycin. A549 and U2OS cells were cultured in RPMI 1640 media (Life) and McCoy’s 5 A modified media (Life), respectively, both supplemented with 10%FBS and 1% pennicillin/streptomycin. LNCaP-abl, and LNCaP-95 cell lines were generous gifts from Z. Culig (Innsbruck Medical University, Austria) and J. Isaacs (Johns Hopkins University, Baltimore, MD), respectively. Cell lines were authenticated by STR profiling (Genetica Cell Line Testing; Burlington, NC). […] Both were measured using the ONE-Glo detection kit (Promega) and data is standardized to CellTiter-Fluor (Promega) viability readings to account for potential variations in well to well cell number. […] Total protein concentration in cell lysates were determined using Pierce Rapid Gold BCA Protein Assay Kit (Thermo). […]

[3] = tested on: U2OS (osteosarcoma) cells; assay: 2D proliferation (CellTiter-Fluor viability), U2OS; conditions: Wnt-independent cell line, 5 days
[4] = tested on: A549 (lung adenocarcinoma) cells; assay: 2D proliferation (CellTiter-Fluor viability), A549; conditions: Wnt-independent cell line, 5 days
[5] = 10 µM compound, relative to vehicle

## COc1ccc([C@H](C)N2CC(=O)N[C@H](C)C(=O)N(CCc3ccccc3Oc3ccccc3)CC(=O)N(c3cc(OC)cc(OC)c3)CC(=O)N(CCCOC(C)C)CC(=O)N([C@@H](C)c3ccc(OC)cc3)CC2=O)cc1 [Compound 13] (cyclo([dA][N(2-(2-PhOPh)Et)Gly][Gly(N-3,5-(OMe)2-Ph)][N((CH2)3OiPr)Gly][X1][X1]))
[1]; [5]
  Wnt inhibitory activity (TOP-Flash luciferase): more effective
[1]; TOP-Flash LNCaP-abl cells, siAPC knockdown, 24 h compound, ± SD of three replicates, read-out: IC50 for Wnt luciferase inhibition
  IC50: 0.105 µM
[2]; [5]
  Inhibition of AR signaling (3xARE luciferase): more effective
[2]; 3xARE LNCaP-abl cells, 48 h compound, androgen-activated, read-out: IC50 for inhibition of the AR luciferase reporter
  IC50: 1.02 µM
[3]
  Effect on proliferation of U2OS cells: no effect
[4]
  Effect on proliferation of A549 cells: no effect
